Results from ChEMBL document CHEMBL4265921, “Novel bisphosphonates with antiresorptive effect in bone mineralization and osteoclastogenesis” (Eur J Med Chem, 2018).
Calls of active or inactive are those of the source. No cut-off for these calls is given here.

Experiments:
Bone marrow cell [1] = assay: Cytotoxicity against C57BL mouse bone marrow cells assessed as effect on cell proliferation at 0.03 to 500 uM after 72 hrs by crystal violet staining based assay
RAW264.7 [2] = assay: Inhibition of RANKL-induced osteoclastogenesis in mouse RAW264.7 cells after 72 hrs by TRAP staining based microscopic analysis; type: functional, cell-based
RAW264.7 [3] = assay: Antiproliferative activity against mouse RAW264.7 cells assessed as reduction in cell viability at 100 uM after 72 hrs by WST8 assay; type: functional, cell-based
Bone marrow cell [4] = assay: Induction of mineralization in C57BL mouse bone marrow cells at 50 nM supplemented with fresh medium containing compound every 3 days for 10 to 15 days by alizarin red dye based assay; type: functional
RAW264.7 [5] = assay: Antiproliferative activity against RANKL-differentiated mouse RAW264.7 cells assessed as reduction in cell viability at 100 uM after 72 hrs by CCK8 assay; type: functional, cell-based
Bone marrow cell [6] = assay: Induction of mineralization in C57BL mouse bone marrow cells at >50 nM supplemented with fresh medium containing compound every 3 days for 10 to 15 days by alizarin red dye based assay; type: functional
MG-63 [7] = assay: Antiproliferative activity against human MG63 cells assessed as reduction in cell viability at 100 uM after 72 hrs by WST8 assay; type: functional, cell-based
J774.A1 = assay: Antiproliferative activity against mouse J774A.1 cells assessed as reduction in cell viability at 100 uM after 72 hrs by WST8 assay; type: functional, cell-based
PC-3 [8] = assay: Antiproliferative activity against human PC3 cells assessed as reduction in cell viability at 100 uM after 72 hrs by WST8 assay; type: functional, cell-based
Bone marrow cell [9] = assay: Induction of mineralization in C57BL mouse bone marrow cells co-cultured with human PC3 cells at >100 nM supplemented with fresh medium containing compound every 3 days for 10 to 15 days by alizarin red dye based assay; type: functional
MC3T3-E1 = assay: Induction of mineralization in mouse MC3T3-E1 cells at >500 nM after 10 to 15 days by alizarin red dye based assay; type: functional, cell-based
Bone marrow cell [10] = assay: Induction of mineralization in C57BL mouse bone marrow cells co-cultured with human PC3 cells at 50 to 100 nM supplemented with fresh medium containing compound every 3 days for 10 to 15 days by alizarin red dye based assay; type: functional
Hydroxyapatite = assay: Binding affinity to hydroxyapatite at 100 uM using sodium salt form of compound after 5 mins by ESI/MS analysis
PC-3 [11] = assay: Antiproliferative activity against human PC3 cells assessed as reduction in cell viability at 2.14 uM after 72 hrs by WST8 assay; type: functional, cell-based
MG-63 [12] = assay: Antiproliferative activity against human MG63 cells assessed as reduction in cell viability at 2.14 uM after 72 hrs by WST8 assay; type: functional, cell-based

| Activity (Hydroxyapatite) [%] | SMILES | Activity (Bone marrow cell [1]) | inhibition (RAW264.7 [2]) | Activity (RAW264.7 [3]) | Activity (Bone marrow cell [4]) | Activity (RAW264.7 [5]) | Activity (Bone marrow cell [6]) | Activity (MG-63 [7]) | Activity (J774.A1) | Activity (PC-3 [8]) | Activity (Bone marrow cell [9]) | Activity (MC3T3-E1) | Activity (Bone marrow cell [10]) | Activity (PC-3 [11]) | Activity (MG-63 [12]) |
| --- | --- | --- | --- | --- | --- | --- | --- | --- | --- | --- | --- | --- | --- | --- | --- |
|  | NCCCC(O)(P(=O)(O)O)P(=O)(O)O [ALENDRONIC ACID] | Non-Toxic | Active | Active | Active | Active | inactive | Active | Active | Active | inactive | inactive | inactive |  |  |
| 87 | O=P(O)(O)C(O)(Cc1cccnc1)P(=O)(O)O [RISEDRONIC ACID] | Non-Toxic | Active | Active | Active | Active | inactive | Active | Active | Active | inactive | inactive | inactive |  |  |
|  | CN[C@@H]1C[C@H]2O[C@@](C)([C@@H]1OC)n1c3ccccc3c3c4c(c5c6ccccc6n2c5c31)C(=O)NC4 |  |  |  |  |  |  |  |  |  |  |  |  | Active | Active |
